What was measured:
ALOMY [1] = assay: Pre-emergence action at 320 g/ha against ALOMY; format: in vivo, Alopecurus myosuroides; settings: scored visually after about 3 weeks vs untreated controls (100% = plants have died)
Method in brief: (§1)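 Weed and crop seeds sown in pots and covered with soil; WP or EC formulations sprayed pre-emergence onto the soil surface at 320 g/ha with 0.5% additive in 600 l/ha water. Kept in greenhouse; after about 3 weeks activity scored visually as % versus untreated controls (100% = plants dead, 0% = as control).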

MATIN [2] = assay: Pre-emergence action at 320 g/ha against MATIN; format: in vivo, Tripleurospermum inodorum (Matricaria inodora); settings: visual scoring after about 3 weeks vs untreated controls
Method in brief: as §1

AMARE [3] = assay: Pre-emergence action against AMARE, 1280 g/ha; format: in vivo, Amaranthus retroflexus; settings: scored visually after about 3 weeks vs untreated controls (100% = plants have died)
Method in brief: (§2)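 Soil-surface application after sowing, before emergence: WP or EC formulations in water with 0.5% additive, 600 litres per hectare, onto sandy loam pots. Damage rated visually in % relative to untreated plants after roughly 3 weeks in a greenhouse.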

VERPE [4] = assay: Pre-emergence action against VERPE, 1280 g/ha; format: in vivo, Veronica persica; settings: scored visually after about 3 weeks vs untreated controls (100% = plants have died)
Method in brief: as §2

KCHSC [5] = assay: Pre-emergence action against KCHSC, 1280 g/ha; format: in vivo, Bassia scoparia; settings: scored visually after about 3 weeks vs untreated controls (100% = plants have died)
Method in brief: as §2

VERPE [6] = assay: Post-emergence action against VERPE, 1.28 kg/ha; format: in vivo, Veronica persica; settings: dosage 1280 g/ha, visual rating about 3 weeks after treatment vs untreated controls (100% = plants died)
Method in brief: (§3)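 Greenhouse pot test, sandy loam; weeds sprayed post-emergence at one-leaf stage (2–3 weeks after sowing) with WP or EC formulation plus 0.5% additive, 600 l/ha water. Visual rating after about 3 weeks versus untreated controls, 100% = plants dead, 0% = like control.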

POAAN [7] = assay: Post-emergence action against POAAN, 1.28 kg/ha; format: in vivo, Poa annua; settings: dosage 1280 g/ha, visual rating about 3 weeks after treatment vs untreated controls
Method in brief: as §3

ABUTH = assay: Post-emergence action against ABUTH, 1.28 kg/ha; format: in vivo, Abutilon theophrasti; settings: dosage 1280 g/ha, visual rating about 3 weeks after treatment vs untreated controls (100% = plants died)
Method in brief: as §3

LOLRI [8] = assay: Post-emergence action against LOLRI, 1.28 kg/ha; format: in vivo, Lolium rigidum; settings: dosage 1280 g/ha, visual rating about 3 weeks after treatment vs untreated controls
Method in brief: as §3

POAAN [9] = assay: Pre-emergence action against POAAN, 1280 g/ha; format: in vivo, Poa annua; settings: visual scoring after about 3 weeks vs untreated controls, 100% = plants have died, 0% = like control plants
Method in brief: as §2

ALOMY [10] = assay: Post-emergence action against ALOMY, 1.28 kg/ha; format: in vivo, Alopecurus myosuroides; settings: dosage 1280 g/ha, visual rating about 3 weeks after treatment vs untreated controls
Method in brief: as §3

MATIN [11] = assay: Pre-emergence action against MATIN, 1280 g/ha; format: in vivo, Tripleurospermum inodorum (Matricaria inodora); settings: scored visually after about 3 weeks vs untreated controls (100% = plants have died)
Method in brief: as §2

STEME [12] = assay: Pre-emergence action against STEME, 1280 g/ha; format: in vivo, Stellaria media; settings: scored visually after about 3 weeks vs untreated controls (100% = plants have died)
Method in brief: as §2

KCHSC [13] = assay: Post-emergence action against KCHSC, 1.28 kg/ha; format: in vivo, Bassia scoparia; settings: dosage 1280 g/ha, visual rating about 3 weeks after treatment vs untreated controls (100% = plants died)
Method in brief: as §3

AMARE [14] = assay: Pre-emergence action at 320 g/ha against AMARE; format: in vivo, Amaranthus retroflexus; settings: visual scoring after about 3 weeks vs untreated controls
Method in brief: as §1

VERPE [15] = assay: Pre-emergence action at 320 g/ha against VERPE; format: in vivo, Veronica persica; settings: visual scoring after about 3 weeks vs untreated controls
Method in brief: as §1

ECHCG [16] = assay: Pre-emergence action against ECHCG, 1280 g/ha; format: in vivo, Echinochloa crus-galli; settings: visual scoring after about 3 weeks vs untreated controls, 100% = plants have died, 0% = like control plants
Method in brief: as §2

SETVI [17] = assay: Pre-emergence action against SETVI, 1280 g/ha; format: in vivo, Setaria viridis; settings: visual scoring after about 3 weeks vs untreated controls, 100% = plants have died, 0% = like control plants
Method in brief: as §2

SETVI [18] = assay: Post-emergence action against SETVI, 1.28 kg/ha; format: in vivo, Setaria viridis; settings: dosage 1280 g/ha, visual rating about 3 weeks after treatment vs untreated controls
Method in brief: as §3

ECHCG [19] = assay: Post-emergence action against ECHCG, 1.28 kg/ha; format: in vivo, Echinochloa crus-galli; settings: dosage 1280 g/ha, visual rating about 3 weeks after treatment vs untreated controls
Method in brief: as §3

VIOTR = assay: Pre-emergence action at 320 g/ha against VIOTR; format: in vivo, Viola tricolor; settings: dosage 320 g/ha
Method in brief: as §1

LOLRI [20] = assay: Pre-emergence action against LOLRI, 1280 g/ha; format: in vivo, Lolium rigidum; settings: visual scoring after about 3 weeks vs untreated controls, 100% = plants have died, 0% = like control plants
Method in brief: as §2

LOLRI [21] = assay: Pre-emergence action at 320 g/ha against LOLRI; format: in vivo, Lolium rigidum; settings: visual scoring after about 3 weeks vs untreated controls
Description: (§4) b) Seeds of monocotyledonous and dicotyledonous weed plants and crop plants are placed in plastic or organic planting pots and covered with soil. The compounds of the invention, formulated in the form of wettable powders (WP) or as emulsion concentrates (EC), are then applied onto the surface of the covering soil as aqueous suspension or emulsion with addition of 0.5% additive at a water application rate of 600 l/ha (converted). After the treatment, the pots are placed in a greenhouse and kept under good growth conditions for the trial plants. After about 3 weeks, the effect of the preparations is scored visually in comparison with untreated controls as percentages. For example, 100% activity=the plants have died, 0% activity=like control plants. Tables 13 to 26 below show the effects of selected compounds of the general formula (I) on various harmful plants and at an application rate corresponding to 320 g/ha, which were obtained by the experimental procedure mentioned above.

SETVI [22] = assay: Pre-emergence action at 320 g/ha against SETVI; format: in vivo, Setaria viridis; settings: visual scoring after about 3 weeks vs untreated controls
Method in brief: as §1

ECHGC = assay: Pre-emergence action at 320 g/ha against ECHGC; format: in vivo, Echinochloa crus-galli; settings: visual scoring after about 3 weeks vs untreated controls
Description: as §4

AMARE [23] = assay: Post-emergence action against AMARE, 1.28 kg/ha; format: in vivo, Amaranthus retroflexus; settings: dosage 1280 g/ha, visual rating about 3 weeks after treatment vs untreated controls (100% = plants died)
Method in brief: as §3

DIGSA [24] = assay: Pre-emergence action against DIGSA, 1280 g/ha; format: in vivo, Digitaria sanguinalis; settings: visual scoring after about 3 weeks vs untreated controls, 100% = plants have died, 0% = like control plants
Method in brief: as §2

ALOMY [25] = assay: Pre-emergence action against ALOMY, 1280 g/ha; format: in vivo, Alopecurus myosuroides; settings: visual scoring after about 3 weeks vs untreated controls, 100% = plants have died, 0% = like control plants
Method in brief: as §2

POLCO = assay: Pre-emergence action at 320 g/ha against POLCO; format: in vivo, Fallopia convolvulus (Polygonum convolvulus); settings: visual scoring after about 3 weeks vs untreated controls
Method in brief: as §1

DIGSA [26] = assay: Post-emergence action against DIGSA, 1.28 kg/ha; format: in vivo, Digitaria sanguinalis; settings: dosage 1280 g/ha, visual rating about 3 weeks after treatment vs untreated controls
Method in brief: as §3

MATIN [27] = assay: Post-emergence action against MATIN, 1.28 kg/ha; format: in vivo, Tripleurospermum inodorum (Matricaria inodora); settings: dosage 1280 g/ha, visual rating about 3 weeks after treatment vs untreated controls (100% = plants died)
Method in brief: as §3

AVEFA = assay: Pre-emergence action at 320 g/ha against AVEFA; format: in vivo; settings: visual scoring after about 3 weeks vs untreated controls
Description: as §4

STEME [28] = assay: Post-emergence action against STEME, 1.28 kg/ha; format: in vivo, Stellaria media; settings: dosage 1280 g/ha, visual rating about 3 weeks after treatment vs untreated controls (100% = plants died)
Method in brief: as §3

Structure (SMILES) | Pre-emergence action against AMARE (AMARE [3]) | Pre-emergence action against VERPE (VERPE [4]) | Pre-emergence action against KCHSC (KCHSC [5]) | Post-emergence action against VERPE (VERPE [6]) | Post-emergence action against POAAN (POAAN [7]) | Post-emergence action against ABUTH (ABUTH) | Post-emergence action against LOLRI (LOLRI [8]) | Pre-emergence action against POAAN (POAAN [9]) | Post-emergence action against ALOMY (ALOMY [10]) | Pre-emergence action against MATIN (MATIN [11]) | Pre-emergence action against STEME (STEME [12]) | Post-emergence action against KCHSC (KCHSC [13]) | Pre-emergence action against ECHCG (ECHCG [16]) | Pre-emergence action against SETVI (SETVI [17]) | Post-emergence action against SETVI (SETVI [18]) | Post-emergence action against ECHCG (ECHCG [19]) | Pre-emergence action against LOLRI (LOLRI [20]) | Post-emergence action against AMARE (AMARE [23]) | Pre-emergence action against DIGSA (DIGSA [24]) | Pre-emergence action against ALOMY (ALOMY [25]) | further results
O=C(O)CNC(=O)COc1nn(-c2ccccc2F)c(-c2ccc(F)nc2)c1Br [Example X-021-a] | 100% | 100% | 90% | 100% | 100% | 100% | 100% | 100% | 100% | 100% | 100% | 100% | 100% | 100% | 100% | 100% | 100% | 100% | 100% | 100% | Pre-emergence action at 320 g/ha against ALOMY in % (ALOMY [1]): 100%; Pre-emergence action against MATIN in % (MATIN [2]): 90%; Pre-emergence action against AMARE in % (AMARE [14]): 100%; Pre-emergence action against VERPE in % (VERPE [15]): 100%; Pre-emergence action against VIOTR in % (VIOTR): 100%; Pre-emergence action against LOLRI in % (LOLRI [21]): 100%; Pre-emergence action against SETVI in % (SETVI [22]): 100%; Pre-emergence action against ECHGC in % (ECHGC): 100%; Pre-emergence action against POLCO in % (POLCO): 100%; Post-emergence action against DIGSA (DIGSA [26]): 100%; Post-emergence action against MATIN (MATIN [27]): 90%; Pre-emergence action against AVEFA in % (AVEFA): 100%
CCOC(=O)COc1nn(-c2ccc(F)cc2F)c(-c2ccc(F)nc2)c1Br [VII-101] | 100% | 100% | 100% | 100% | 100% | 90% | 100% | 100% | 100% | 100% | 100% | 90% | 90% | 100% | 100% | 100% | 100% | 90% | 100% | 100% | Post-emergence action against STEME (STEME [28]): 100%; Post-emergence action against DIGSA (DIGSA [26]): 100%; Post-emergence action against MATIN (MATIN [27]): 100%
